Measured values taken from US9162219B2, “Fenton reaction catalyst produced using reducing organic substance as raw material” (INCORPORATED ADMINISTRATIVE AGENCY, NATIONAL AGRICULTURE …, priority 2011, dated 2015).

Legend:
[1] = Ability to catalyze Fenton reaction, luminol reaction observed by eye; conditions: reaction product solution added to 100 ml luminol solution (1 g/L luminol, 4 g/L sodium hydroxide, 0.3% hydrogen peroxide)
Description: With respect to the reaction products of the samples, which were confirmed to have iron reducing effects in Example 1, and iron, the fact that the reaction products have abilities to catalyze the Fenton reaction was examined by a luminol reaction.
It should be noted that the luminol reaction means a luminescence reaction caused by oxidizing luminol by generation of hydroxyl radicals.
Small amounts of the aqueous solutions containing the reaction products prepared in Example 1 were each added to 100 ml of a luminol solution (1 g/L luminol, 4 g/L sodium hydroxide, 0.3% hydrogen peroxide), and the presence or absence of luminescence was observed.

[2] = Luminol reaction, amount of luminescence (hydroxyl radicals generated) measured with AB-2270 Luminescencer Octa
Procedure: In the step of preparing the reaction products of the samples and iron, the ability to catalyze the Fenton reaction was examined with different mixing ratios of the samples to iron.
The above-mentioned samples were each mixed with iron (III) chloride (1 mM FeCl3) at different mixing ratios as shown in FIG. 2 to prepare reaction products in the same manner as in Example 1.
(§1) Then, for each of the aqueous solutions containing the reaction products, the amount of luminescence (amount of hydroxyl radicals generated) provided by the luminol reaction was measured using the AB-2270 Luminescencer Octa to determine the ability of the reaction products to catalyze the Fenton reaction. […]
The above-mentioned samples were added to different concentrations of iron (III) chloride (0.02, 0.1, 0.2, 1, 5, and 10 mM) at the optimum mixing ratios determined in Example 3 (ascorbic acid: 0.5 mM, squeezed grape juice: 40 mg/L in terms of total polyphenols, chaff vinegar stock solution: 50 g/L, with respect to 1 mM FeCl3) to prepare reaction products in the same manner as in Example 1.
as §1

Escherichia coli = conditions: 10 mM hydrogen peroxide, 1.0x10^6 cfu/mL, 10 minutes of treatment, TTC medium plate

O=C1O[C@H]([C@@H](O)CO)C(O)=C1O [Sample 1, ascorbic acid]
presence or absence of luminescence [1]: blue fluorescence was observed | ability to catalyze the Fenton reaction ([2]; reaction products with iron at optimum mixing ratios and concentrations (Example 5)): very high | optimum mixing concentration for ability to catalyze the Fenton reaction ([2]; with respect to 1 mM FeCl3): about 0.5 mM

OO [hydrogen peroxide]
sterilization effect (survival of Escherichia coli) (Escherichia coli): a large amount of Escherichia coli survived
